Experimental data reported in ChEMBL document CHEMBL1128456, “Synthesis and biological evaluation of N6-cycloalkyl derivatives of 1-deazaadenine nucleosides: a new class of anti-human immunodeficiency virus agents” (J Med Chem, 1995).

What was measured:
Adenosine deaminase = target: T1, Adenosine deaminase (Bos taurus, UniProt P56658); assay: Inhibition calf intestine adenosine deaminase
T1 sequence (P56658 whole entry): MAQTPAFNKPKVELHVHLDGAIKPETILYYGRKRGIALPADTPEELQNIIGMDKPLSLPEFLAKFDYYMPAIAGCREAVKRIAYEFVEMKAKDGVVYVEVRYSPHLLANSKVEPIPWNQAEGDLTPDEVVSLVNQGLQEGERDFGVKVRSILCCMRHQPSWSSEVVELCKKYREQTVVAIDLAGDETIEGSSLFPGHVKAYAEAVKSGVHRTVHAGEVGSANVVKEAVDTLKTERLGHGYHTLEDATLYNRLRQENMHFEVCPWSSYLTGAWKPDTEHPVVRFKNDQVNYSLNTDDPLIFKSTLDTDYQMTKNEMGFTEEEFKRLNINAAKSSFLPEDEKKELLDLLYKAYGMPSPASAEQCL

[1] = test system: Human immunodeficiency virus 1; assay: In vitro evaluation of anti-HIV-1 activity in C8166 cells infected with HIV-1 IIIB.; type: functional; settings: Human immunodeficiency virus 1, C8166; read-out: ED50 (the source's name)
[2] = In vitro evaluation of cytotoxicity in C8166 cells infected with HIV-1 IIIB.; type: cell-based; settings: human, read-out: TC50 (the source's name)

Ki (Adenosine deaminase) [µM]	EC50 [1] [µM]	Compound	CC50 [2] [µM]
22	40	OC[C@H]1O[C@@H](n2cnc3c(NC4CCCC4)ccnc32)C[C@@H]1O	400
4.2	> 100	CNc1cc(Cl)nc2c1ncn2[C@H]1C[C@H](O)[C@@H](CO)O1	> 100
59	4	OC[C@H]1O[C@@H](n2cnc3c(NC4CCCCCCC4)ccnc32)C[C@@H]1O	40
11	> 100	CNc1cc(Cl)nc2c1ncn2C1CCC(CO)O1 (stereo unspecified)	> 100
75	8	OC[C@H]1O[C@@H](n2cnc3c(NC4CC4)cc(Cl)nc32)C[C@@H]1O	500
100	> 100	OC[C@H]1O[C@@H](n2cnc3c(NC4CCC4)ccnc32)[C@H](O)[C@@H]1O	> 100
71	2	OC[C@H]1OC(n2cnc3c(NC4CCCCCCC4)cc(Cl)nc32)[C@H](O)[C@@H]1O (stereo partly specified)	40
97	100	OC[C@H]1O[C@@H](n2cnc3c(NC4CCC4)cc(Cl)nc32)[C@H](O)[C@@H]1O	400
> 100	8	OC[C@H]1O[C@@H](n2cnc3c(NC4CCCCC4)ccnc32)C[C@@H]1O	100
2.2	50	CNc1ccnc2c1ncn2C1CCC(CO)O1 (stereo unspecified)	100
42	30	OC[C@H]1O[C@@H](n2cnc3c(NC4CCCCCC4)ccnc32)C[C@@H]1O	80
50	> 100	OC[C@H]1O[C@@H](n2cnc3c(NC4CC4)ccnc32)C[C@@H]1O	> 100
92	50	OCC1CCC(n2cnc3c(NC4CCC4)ccnc32)O1 (stereo unspecified)	400
80	4	OC[C@H]1OC(n2cnc3c(NC4CCCCCCC4)ccnc32)[C@H](O)[C@@H]1O (stereo partly specified)	50
69	40	OCC1CCC(n2cnc3c(NC4CCCCC4)ccnc32)O1 (stereo unspecified)	50
97	20	OC[C@H]1O[C@@H](n2cnc3c(NC4CCC4)ccnc32)C[C@@H]1O	400
2.5	> 100	Nc1ccnc2c1ncn2C1CCC(CO)O1 (stereo unspecified)	> 100
23	> 100	Nc1cc(Cl)nc2c1ncn2[C@H]1C[C@H](O)[C@@H](CO)O1	> 100
38	> 100	OC[C@H]1O[C@@H](n2cnc3c(NC4CC4)ccnc32)[C@H](O)[C@@H]1O	> 100
0.25	> 100	CNc1ccnc2c1ncn2[C@H]1C[C@H](O)[C@@H](CO)O1	> 100
12	> 100	CNc1ccnc2c1ncn2C1O[C@H](CO)[C@@H](O)[C@H]1O (stereo partly specified)	> 100
30	> 100	Nc1cc(Cl)nc2c1ncn2[C@@H]1O[C@H](CO)[C@@H](O)[C@H]1O	> 100
53	8	OCC1CCC(n2cnc3c(NC4CCCCCC4)ccnc32)O1 (stereo unspecified)	40
78	100	OCC1CCC(n2cnc3c(NC4CC4)ccnc32)O1 (stereo unspecified)	750
69	> 100	CNc1cc(Cl)nc2c1ncn2C1O[C@H](CO)[C@@H](O)[C@H]1O (stereo partly specified)	> 100

Compound	Ki (Adenosine deaminase) [µM]	EC50 [1] [µM]	CC50 [2] [µM]
Nc1ccnc2c1ncn2[C@@H]1O[C@H](CO)[C@@H](O)[C@H]1O	0.38	> 100	2
Nc1cc(Cl)nc2c1ncn2C1CCC(CO)O1 (stereo unspecified)	> 100	> 100	> 100
OCC1CCC(n2cnc3c(NC4CCCCCCC4)ccnc32)O1 (stereo unspecified)	> 100	0.8	10
OCC1CCC(n2cnc3c(NC4CCCCCC4)cc(Cl)nc32)O1 (stereo unspecified)	> 100	0.8	8
OC[C@H]1OC(n2cnc3c(NC4CCCCCC4)cc(Cl)nc32)[C@H](O)[C@@H]1O (stereo partly specified)	> 100	8	50
OCC1CCC(n2cnc3c(NC4CCCC4)cc(Cl)nc32)O1 (stereo unspecified)	> 100	20	50
OC[C@H]1O[C@@H](n2cnc3c(NC4CCCCCCC4)cc(Cl)nc32)C[C@@H]1O	> 100	2	40
OCC1CCC(n2cnc3c(NC4CCCCC4)cc(Cl)nc32)O1 (stereo unspecified)	> 100	4	20
OCC1CCC(n2cnc3c(NC4CC4)cc(Cl)nc32)O1 (stereo unspecified)	> 100	> 100	> 100
OC[C@H]1O[C@@H](n2cnc3c(NC4CCCCCC4)cc(Cl)nc32)C[C@@H]1O	> 100	0.2	5
OC[C@H]1OC(n2cnc3c(NC4CCCCCC4)ccnc32)[C@H](O)[C@@H]1O (stereo partly specified)	> 100	20	100
OC[C@H]1O[C@@H](n2cnc3c(NC4CCCC4)cc(Cl)nc32)C[C@@H]1O	> 100	0.8	7
OC[C@H]1O[C@@H](n2cnc3c(NC4CC4)cc(Cl)nc32)[C@H](O)[C@@H]1O	> 100	30	500
OC[C@H]1O[C@@H](n2cnc3c(NC4CCCC4)cc(Cl)nc32)[C@H](O)[C@@H]1O	> 100	10	100
OCC1CCC(n2cnc3c(NC4CCCCCCC4)cc(Cl)nc32)O1 (stereo unspecified)	> 100	0.4	10
OC[C@H]1O[C@@H](n2cnc3c(NC4CCC4)cc(Cl)nc32)C[C@@H]1O	> 100	4	400
OC[C@H]1O[C@@H](n2cnc3c(NC4CCCCC4)ccnc32)[C@H](O)[C@@H]1O	> 100	100	400
OCC1CCC(n2cnc3c(NC4CCC4)cc(Cl)nc32)O1 (stereo unspecified)	> 100	4	250
OC[C@H]1O[C@@H](n2cnc3c(NC4CCCC4)ccnc32)[C@H](O)[C@@H]1O	> 100	16	400
OC[C@H]1O[C@@H](n2cnc3c(NC4CCCCC4)cc(Cl)nc32)[C@H](O)[C@@H]1O	> 100	20	50
Nc1ccnc2c1ncn2[C@H]1C[C@H](O)[C@@H](CO)O1	0.19	> 100	> 100
OCC1CCC(n2cnc3c(NC4CCCC4)ccnc32)O1 (stereo unspecified)	> 100	80	500
OC[C@H]1O[C@@H](n2cnc3c(NC4CCCCC4)cc(Cl)nc32)C[C@@H]1O	> 100	4	100
Nc1ncnc2c1ncn2[C@H]1CC[C@@H](CO)O1	–	2	> 100
